Reference: US20160214926A1, “DIPHENYLOXYALKYLAMINE DERIVATIVES AND ARYLOXYALKYLAMINE DERIVATIVES, PHARMACEUTICAL COMPOSITION, USE OF SAID PHARMACEUTICAL COMPOSITION FOR TREATING, PREVENTING OR INHIBITING CHRONIC PULMONARY INFLAMMATORY DISEASES AND METHOD FOR TREATING OR PREVENTING SUCH DISEASES” (FUNDACAO OSWALDO CRUZ, priority 2013, published 2016)
Blank lines part the entries; values can stand above or below the compound they belong to.

How the values were obtained:
tracheal rings = test: Anaphylactic (ovalbumin-induced) contraction of tracheal rings from sensitized rats; set-up: species or system Wistar rats; conditions: compound 30 μM
Description: In this study, Wistar rats of both sexes were used, weighing between 200 and 250 g, coming from the Laboratory Animal Breeding Center of Fundacdo Oswaldo Cruz. As described previously (da Costa et al., 2007), the animals were sensitized by injection into the dorsal subcutaneous tissue with mixture containing 50 μg of ovalbumin and 5 mg of aluminum hydroxide on days 0 and 7. On the 14th day after the first sensitization, the animals were sacrificed for the removal of the trachea. After a stabilization period of 30 minutes, the tracheal rings were contracted initially with carbachol (2.5 μM) for testing the feasibility and reproducibility of the responses of the preparation.
The tracheal rings were exposed to increasing concentrations of JME-173 (3-30 μM), or carrier (0.9% NaCl) for 30 minutes before the triggering of the contractile response triggered by ovalbumin (100 μg/ml). Salmeterol (30 μM) was used as reference treatment. The responses were expressed as mean±Standard Error of the Mean of at least 5 tracheal segments. All results were expressed as percentage of the contraction produced by 2.5 μM of carbachol.

[1] = tested on: rat tracheas pre-contracted with carbachol; test: Relaxation of rat trachea pre-contracted with carbachol
Description: To assess the potential relaxing effect of the respiratory smooth muscle, rat tracheas were obtained and maintained in an isolated organ bath, as previously described (Coelho et al., 2008). The tracheal segments were then pre-contracted with carbachol at the concentration of 2.5 μM and subjected to increasing concentrations of the tested compounds. All results were expressed as percentage of the contraction produced by carbachol (Coelho et al., 2008).

[2] = tested on: mast cells of the RBL-2H3 line; test: Antigen-induced degranulation of sensitized mast cells (beta-hexosaminidase release); assay type: cell-based; conditions: Rattus norvegicus; for IC50: RBL-2H3, 1 h, RBL-2H3, DNP-BSA 10 ng/ml, 60 minutes treatment, read-out: IC50 blocking of anaphylactic mast cell degranulation; for Emax: RBL-2H3, DNP-BSA, read-out: EMAX blocking of anaphylactic mast cell degranulation
Description: For this study, mast cells of the RBL-2H3 line were used, as previously reported (Beaven et al., 1987). […] The cells were then dissociated from the plate using trypsin, centrifuged at 1000 rpm for 5 minutes and distributed in 48-well plates at a density of 125,000 cells per well. The cells were sensitized with monoclonal DNP-specific […] (1 μg/mL) diluted in the same medium used for the cultivation and maintained in the oven for 20 hours. After this period, the cells were washed with Tyrode-gelatin and subjected to treatment with increasing concentrations of […]-209 or mexiletine for 60 minutes. Then, incubation was performed with DNP-BSA (10 ng/ml) for a further period of 60 minutes. After this period, 10 μL of supernatant were collected from each well and added to a 96-well plate. The cells were lysed with 200 μL of 0.1% Triton X-100 and 10 μL of the lysate of each plate were added to the 96-well plate. Then, 40 μL of substrate for the β-hexosaminidase enzyme were added to the samples. After 40 minutes of reaction, reaction stopping solution (0.2 M glycine) was added, generating a colorimetric response, which was measured by spectrophotometer (λ=405 nm).

A/J mice [3] = test: Methacholine-induced bronchospasm (Penh), whole-body plethysmography; assay type: in vivo; conditions: for blocking of methacholine-induced increase of Penh (cholinergic bronchospasm): 30 and 100 mg/kg orally
Description: A/J mice of both sexes were used, weighing between 18 and 20 g, coming from the Laboratory Animal Breeding Center of Oswaldo Cruz Foundation. Using barometric whole-body plethysmography (Buxco Research System, Wilmington, N.C.), bronchospasm responses caused by subsequent inhalations of methacholine (12, 25 and 50 mg/ml for 2.5 minutes, 5-minute intervals) were measured in standard A/J mice, awake, not immobilized, as previously reported (Coelho et al., 2008; Hamelmann et al., 1997). Penh measures in response to methacholine challenge were performed 1 hour and 3 hours after treatment with JME-207 and JME-209 (30 and 100 mg/kg) administered orally (gavage).

A/J mice [4] = test: Ovalbumin asthma model: airway hyperreactivity, leukocyte infiltration, cytokines (nebulization); assay type: in vivo; conditions: for IL-5 generation in lung tissue / IL-13 generation in lung tissue / eotaxin-2 generation in lung tissue / increased production of eotaxin-1: nebulization 2%; for airway hyperreactivity (lung resistance and elastance after methacholine): nebulization 2% for 30 minutes, OVA sensitized and challenged
Description: Male A/J mice (18-20 g), coming from the Laboratory Animal Breeding Center of Oswaldo Cruz Foundation, were used in the experiments. The animals were previously sensitized with a mixture of ovalbumin (OVA) (50 μg) (Grade V; Sigma, St. Louis, Mo., USA) and aluminum hydroxide (5 mg) administered subcutaneously on day 0 with boost on day 14 (equal suspension administered intraperitoneally). Nasal instillations of OVA (25 μg/25 μl in sterile 0.9% NaCl) were administered on days 14, 21, 28 and 35, with the hyperresponsiveness analysis performed 24 hours after the last challenge. […] That is, the treatments took place after the installation of asthma framework, reflecting a therapeutic action of the respective compounds analyzed.
The effect of the treatments on bronchial hyperreactivity was investigated by measuring the resistance changes and pulmonary elastance, using invasive barometric plethysmography whole-body system (Buxco, USA), as previously described (Olsen et al., 2012).

rat tracheal rings = test: Inhibition of carbachol-induced contraction of rat tracheal rings (pretreatment); conditions: Rattus norvegicus
Text: In this study, Wistar rats of both sexes were used, weighing between 200 and 250 g, coming from the Laboratory Animal Breeding Center of Fundacdo Oswaldo Cruz. As previously described (Coelho et al., 2008), the animals were sacrificed by exposure to air atmosphere enriched with CO2, Then, the anterior cervical region was opened so that the trachea could be located and removed. It was then transferred to a Petri dish containing Krebs solution with the following composition (mM): NaCl (118), KCl (4.8), CaCl2 (2.5), MgSO4 (1.2), KH2PO4 (1.2), NaHCO3 (24), and glucose (11). The total segment was divided into fragments of about 3 to 4 rings, which were kept in another Petri dish containing Krebs solution. Each fragment was mounted vertically on a 10 ml cuvette with Krebs solution maintained at 37° C. and aerated with carbogen mixture (95% O2 and 5% CO2). The lower rod is fixed to the cuvette base and the top portion was attached to the isometric transducer for measuring the voltage variation of the fragment. The transducer was connected to a device which transforms the voltage variation in digital record. The fragments were subjected to a basal voltage of 1 g and were calibrated, so that the subsequent contractions could be expressed as a percentage of this 1 g voltage. The solutions were introduced inside the cuvettes with the aid of an automatic pipette. The end of the tip was always placed at the same height and position, without touching the muscle. The tracheal rings were initially contracted with 2.5 μM of carbachol. When the contractions reached the plateau, each segment was washed until the total relaxation of the smooth muscle. […] All results were expressed as percentage of the contraction produced by 2.5 μM of carbachol (Coelho et al., 2008).

A/J mice [5] = test: LPS-induced lung inflammation and airway hyperreactivity; assay type: in vivo
Description: Male A/J mice (18-20 g), coming from the Laboratory Animal Breeding Center of Oswaldo Cruz Foundation, were used in the experiments. The mice were anesthetized with halothane aerosol ([…], SP, Brazil) to receive intranasal administration of LPS (25 μg/25 μl 0.9% NaCl, instillation) or 0.9% NaCl (25 μl) (negative control). […] Obtaining of bronchoalveolar lavage, as well as the total and differential leukocyte counts carried out in this effluent, were made as previously described (Kummerle et al., 2012). Thus, after 18 hrs of LPS instillation, the mice were sacrificed by terminal anesthesia with thiopental (500 mg/kg). Then, they had the trachea dissected and cannulated. Bronchoalveolar lavage (BAL) was performed by 3 consecutive lavages of 800 μl of PBS containing EDTA (10 mM). The lavages were then subjected to centrifugation (1500 rpm-10 minutes) and the cell “pellet” resuspended in the volume of 0.5 ml of PBS/EDTA solution 10 mM. The total leukocyte count from the lavage was performed in a Neubauer chamber by light microscopy (100× magnification), diluting an aliquot of the cell suspension from the lavage in TPrk liquid (1:40). The differential counting was performed on cytocentrifuged, which were stained with May-Grunwald-Giemsa and assessed using oil immersion objective (1000× magnification) (Kummerle et al., 2012). The airway hyperreactivity was also assessed 18 hours after LPS, by exposing the animals to increasing concentrations of aerosolized methacholine (3-27 mg/ml) in FinePoint R/C Buxco® system (Buxco Electronics, Sharon, Conn., USA). The mice were anesthetized with Nembutal (60 mg/kg, i.p.) for the tracheostomy procedure and connection of the animal to mechanical ventilation and pneumotachograph of the FinePoint platform. The neuromuscular activity was blocked with pancuronium bromide (1 mg/kg, i.v.) to enable the pulmonary resistance records (cm H20/mL/s) and elastance (cm H20/mL) in each respiratory cycle, as previously reported (Olsen et al., 2011).

A/J mice [6] = test: Acute airway inflammation induced by cigarette smoke; assay type: in vivo; conditions: JME-209 30 and 100 mg/kg
Description: Male A/J mice (18-20 g), coming from the Laboratory Animal Breeding Center of Oswaldo Cruz Foundation, were used in the experiments. The animals were placed in a chamber and subjected to an atmosphere enriched with 100 ml of smoke from 4 filter cigarettes (trade mark) for 1 minute on four consecutive days. Control animals were exposed to the condition in which cigarette smoke was replaced by equal volume of ambient air (Castro et al., 2009).
[…] The compounds were dissolved in 0.9% NaCl just prior to administration.
Obtaining of bronchoalveolar lavage, as well as the total and differential leukocyte counts carried out in this effluent, were made as previously described (Olsen et al., 2011). Thus, after 24 hrs of the last exposure to cigarette smoke, the mice were sacrificed by terminal anesthesia with thiopental (500 mg/kg). Then, they had the trachea dissected and cannulated BAL was performed by 3 consecutive lavages of 800 μl of PBS containing EDTA (10 mM). The lavages were then subjected to centrifugation (1500 rpm-10 minutes) and the cell “pellet” resuspended in the volume of 0.5 ml of PBS/EDTA solution 10 mM. The total leukocyte count from the lavage was performed in a Neubauer chamber by light microscopy (100× magnification), diluting an aliquot of the cell suspension from the lavage in TPrk liquid (1:40). The differential counting was performed on cytocentrifuged, which were stained with May-Grunwald-Giemsa and assessed using oil immersion objective (1000× magnification).

[7] = 30 and 100 mg/kg orally 1 hour before LPS

Compound: OCc1cc(C(O)CNCCCCCCOCCCCc2ccccc2)ccc1O (centres unmarked) [salmeterol, reference compound]
blocking of anaphylactic contraction (tracheal rings): 52%

EC50 ([1]; Rattus norvegicus, trachea pre-contracted with carbachol 2.5 μM, mean±SEM): 1000 µM | IC50 (rat tracheal rings; carbachol 10 μM, pretreated 10 minutes): 40.9 µM
Compound: Cc1cc(I)ccc1OCC(C)N.Cl (centres unmarked) [JME-207]
times more potent as relaxation inducers than mexiletine ([1]; pre-contracted trachea): 146 times | maximum relaxation effect ([1]; trachea pre-contracted with carbachol 2.5 μM, mean±SEM): 111% | IC50 [2]: 2.3 µM | Emax [2]: 94% | blocking of methacholine-induced increase of Penh (cholinergic bronchospasm) (A/J mice [3]; 3 hours after treatment): significantly inhibited | IL-5 generation in lung tissue (A/J mice [4]): equally sensitive | IL-13 generation in lung tissue (A/J mice [4]): equally sensitive | eotaxin-2 generation in lung tissue (A/J mice [4]): only the latter inhibited | increased production of eotaxin-1 (A/J mice [4]): failed to modify | airway hyperreactivity (lung resistance and elastance after methacholine) (A/J mice [4]): abolished | Emax (rat tracheal rings; carbachol 10 μM, pretreated 10 minutes, mean ± SEM, read-out: EMAX maximum effect of inhibition of carbachol-induced contraction): 92.9 ± 4.3% | inhibition at 100 µM (rat tracheal rings; compound 100 μM, pre-treatment 10 minutes, read-out: inhibition of the muscarinic contraction): ~93%

Compound: CC(N)COc1ccc(-c2ccccc2)cc1.Cl (centres unmarked) [JME-209]
IC50 [2]: 28.6 µM | Emax [2]: 100% | increase in the number of mononuclear cells in bronchoalveolar lavage (A/J mice [5]; [7]): without significantly altering | levels of eosinophils in bronchoalveolar lavage (A/J mice [5]; [7]): reducing | levels of neutrophils in bronchoalveolar lavage (A/J mice [5]; [7]): reducing | leukocyte infiltration in bronchoalveolar space (A/J mice [5]; 30 and 100 mg/kg orally 1 hour before LPS, 18 hours after challenge): inhibited | airway hyperreactivity (lung resistance and elastance) (A/J mice [5]; oral treatment 1 hour before LPS, 18 hours after LPS): inhibited | action time (A/J mice [3]; 100 mg/kg orally): at least 3 hours | blocking of methacholine-induced increase of Penh (cholinergic bronchospasm) (A/J mice [3]; 1 hour after treatment): slight blocking | blocking of methacholine-induced increase of Penh (cholinergic bronchospasm) (A/J mice [3]; 3 hours after treatment): active only at the highest dose | eosinophils in bronchoalveolar effluent (A/J mice [6]; dexamethasone 1 mg/kg, orally): blocked | mononuclear cells in bronchoalveolar effluent (A/J mice [6]; dexamethasone 1 mg/kg, orally): blocked | neutrophils in bronchoalveolar effluent (A/J mice [6]; dexamethasone 1 mg/kg, orally): blocked | accumulation of total leukocytes in bronchoalveolar space (A/J mice [6]; dexamethasone 3 mg/kg, orally 1 hr before smoke): significantly inhibited

Compound: CC(N)COc1ccc(F)c(Cl)c1.Cl (centres unmarked) [JME-188]
IL-5 generation in lung tissue (A/J mice [4]): equally sensitive | IL-13 generation in lung tissue (A/J mice [4]): equally sensitive | eotaxin-2 generation in lung tissue (A/J mice [4]): inhibited | increased production of eotaxin-1 (A/J mice [4]): failed to modify | airway hyperreactivity (lung resistance and elastance after methacholine) (A/J mice [4]): abolished

Compound: CC(N)COc1cccc(I)c1.Cl (centres unmarked) [JME-141]
airway hyperreactivity (lung resistance and elastance after methacholine) (A/J mice [4]): abolished
